Test results: US6977296B2, “HUMAN CERVICAL CANCER SUPPRESSOR PROTEIN, POLYNUCLEOTIDE ENCODING THE PROTEIN, CELL TRANSFORMED WITH THE POLYNUCLEOTIDE AND METHOD FOR SUPPRESSING PROLIFERATION OF CANCER CELL USING THE EXPRESSION VECTOR” (priority 2000, dated 2005)

Test system: HeLa cervical cancer cells
Assay: Adriamycin or UVC-triggered apoptosis: cell cycle kinetic analysis (PI, FACS)
Format: cell-based, human
Protocol: To examine whether a drug or UV light triggers apoptosis of the cells transfected with HCCS-1 gene, the cell cycle kinetic analysis was conducted as described by Hedley, D. W.(in Flow Cytometry, DNA Analysis from Paraffin-embedded Blocks (eds Darzynkiewicz, Z. & Crissman, H. A.) 139 (Academic Press, San Diego, 1990)).
HeLa cells transfected with HCCS-1 gene obtained in Step 2 of Example 4 and parental wild-type cells were cultured until mid-log phase and incubated in Waymouth MB 752/1 medium containing 0.5% bovine calf serum for 36 hours to arrest the cell growth at G0/G1 phase. The cells were treated with adriamycin (0.1 and 2 μg/ml, respectively) or UVC (50 J/m^2) and then the cells were cultured in Waymouth MB 752/1 medium containing 0.5% bovine calf to resume the cell growth. After 24 hours, HeLa cells were harvested, treated with trypsin, and fixed in 70% ethanol.
50 μg/ml of PI staining solution (Sigma) and 100 units/ml of RNase A (Boerhinger Mannheim) were added to 2×10^6 of the fixed cells. After incubation for 1 hour, the cellular DNA content was determined by fluorescence analysis at 488 nm using a FACS Caliber (Becton Dickinson). A minimum of 1×10^4 cells per sample was analyzed with Modfit 5.2 software.

Compound: COc1cccc2c1C(=O)c1c(O)c3c(c(O)c1C2=O)C[C@@](O)(C(=O)CO)C[C@@H]3O[C@H]1C[C@H](N)[C@H](O)[C@H](C)O1 [adriamycin]
- differences in cell populations with respect to cell cycle progression between wild-type and HCCS-1-transfected HeLa cells (adriamycin 0.1 and 2 μg/ml, 24 hours): no significant differences
- cells in apoptotic sub G0/G1-phase (wild-type HeLa cells, 24 hours after adriamycin 0.1 and 2 μg/ml): few cells remained in apoptotic sub G0/G1-phase
